PubChem BioAssay (NCI)
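Growth conditions: 96-well plates. Treatment: test compound, 48 hours, 5 concentrations. Analysis: linear interpolation between bracketing concentrations; unreached endpoints set to highest concentration. TGI: concentration producing complete growth inhibition.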

Assays:
Experiment in all cases: NCI tumour cell line growth inhibition, 48 h
[1] = test system: RXF 393 renal
[2] = test system: HCT-116 colon
[3] = test system: IGROV1 ovarian
[4] = test system: K-562 leukemia
[5] = test system: SNB-19 CNS
[6] = test system: OVCAR-5 ovarian
[7] = test system: NCI/ADR-RES ovarian
[8] = test system: SF-268 CNS
[9] = test system: SK-MEL-28 melanoma
[10] = test system: UO-31 renal
[11] = test system: EKVX NSCLC
[12] = test system: HOP-62 NSCLC
[13] = test system: UACC-257 melanoma
[14] = test system: OVCAR-4 ovarian
[15] = test system: HCT-15 colon
[16] = test system: ACHN renal
[17] = test system: SF-539 CNS
[18] = test system: T-47D breast
[19] = test system: A549 NSCLC
[20] = test system: MALME-3M melanoma
[21] = test system: MDA-MB-231 breast
[22] = test system: NCI-H23 lung
[23] = test system: MDA-MB-435
[24] = test system: M14 melanoma
[25] = test system: SK-OV-3 ovarian
[26] = test system: HS 578T breast
[27] = test system: COLO 205 colon
[28] = test system: HOP-92 NSCLC
[29] = test system: SF-295 CNS
[30] = test system: HT29 colon
[31] = test system: MCF7 breast
[32] = test system: PC-3 prostate
[33] = test system: U251 CNS
[34] = test system: BT-549 breast
[35] = test system: A498 renal
[36] = test system: SK-MEL-2 melanoma
[37] = test system: SN12C renal
[38] = test system: HCC-2998 colon
[39] = test system: LOX IMVI melanoma
[40] = test system: TK-10 renal
[41] = test system: UACC-62 melanoma
[42] = test system: KM12 colon
[43] = test system: MDA-N
[44] = test system: NCI-H522 lung
[45] = test system: NCI-H226 lung
[46] = test system: MOLT-4 leukemia
[47] = test system: OVCAR-3 ovarian
[48] = test system: SNB-75 CNS
[49] = test system: OVCAR-8 ovarian
[50] = test system: SW-620 colon
[51] = test system: CAKI-1 renal
[52] = test system: 786-0 renal
[53] = test system: NCI-H460 lung
[54] = test system: DU-145 prostate
[55] = test system: SK-MEL-5 melanoma
[56] = test system: RPMI-8226 leukemia
[57] = test system: CCRF-CEM leukemia
[58] = test system: HL-60(TB) leukemia
[59] = test system: SR leukemia

CC(=Nc1cc(Cl)cc(Cl)c1)c1ccncc1
TGI [1]: > 100 µM | TGI [2]: > 100 µM | TGI [3]: > 100 µM | TGI [4]: > 100 µM | TGI [5]: > 100 µM | TGI [6]: > 100 µM | TGI [7]: > 100 µM | TGI [8]: > 100 µM | TGI [9]: > 100 µM | TGI [10]: > 100 µM | TGI [11]: > 100 µM | TGI [12]: > 100 µM | TGI [13]: > 100 µM | TGI [14]: > 100 µM | TGI [15]: > 100 µM | TGI [16]: > 100 µM | TGI [17]: > 100 µM | TGI [18]: > 100 µM | TGI [19]: > 100 µM | TGI [20]: > 100 µM | TGI [21]: > 100 µM | TGI [22]: > 100 µM | TGI [23]: > 100 µM | TGI [24]: > 100 µM | TGI [25]: > 100 µM | TGI [26]: > 100 µM | TGI [27]: > 100 µM | TGI [28]: > 100 µM | TGI [29]: > 100 µM | TGI [30]: > 100 µM | TGI [31]: > 100 µM | TGI [32]: > 100 µM | TGI [33]: > 100 µM | TGI [34]: > 100 µM | TGI [35]: > 100 µM | TGI [36]: > 100 µM | TGI [37]: > 100 µM | TGI [38]: > 100 µM | TGI [39]: > 100 µM | TGI [40]: > 100 µM | TGI [41]: > 100 µM | TGI [42]: > 100 µM | TGI [43]: > 100 µM | TGI [44]: > 100 µM | TGI [45]: > 100 µM | TGI [46]: > 100 µM | TGI [47]: > 100 µM | TGI [48]: > 100 µM | TGI [49]: > 100 µM | TGI [50]: > 100 µM | TGI [51]: > 100 µM | TGI [52]: > 100 µM | TGI [53]: > 100 µM | TGI [54]: > 100 µM | TGI [55]: > 100 µM | TGI [56]: > 100 µM | TGI [57]: > 100 µM

Cc1nc(Nc2nc3ccccc3[nH]2)nc(Cl)c1CCCl
TGI [2]: > 100 µM | TGI [3]: > 100 µM | TGI [4]: > 100 µM | TGI [58]: > 100 µM | TGI [5]: > 100 µM | TGI [7]: > 100 µM | TGI [8]: > 100 µM | TGI [9]: > 100 µM | TGI [10]: > 100 µM | TGI [11]: > 100 µM | TGI [13]: > 100 µM | TGI [14]: > 100 µM | TGI [15]: > 100 µM | TGI [16]: > 100 µM | TGI [17]: > 100 µM | TGI [18]: > 100 µM | TGI [19]: > 100 µM | TGI [20]: > 100 µM | TGI [21]: > 100 µM | TGI [22]: > 100 µM | TGI [23]: > 100 µM | TGI [24]: > 100 µM | TGI [26]: > 100 µM | TGI [27]: > 100 µM | TGI [28]: 90.3 µM | TGI [30]: > 100 µM | TGI [32]: > 100 µM | TGI [33]: > 100 µM | TGI [34]: > 100 µM | TGI [35]: > 100 µM | TGI [36]: > 100 µM | TGI [37]: > 100 µM | TGI [59]: > 100 µM | TGI [40]: > 100 µM | TGI [41]: > 100 µM | TGI [42]: > 100 µM | TGI [43]: > 100 µM | TGI [44]: > 100 µM | TGI [45]: > 100 µM | TGI [46]: > 100 µM | TGI [48]: > 100 µM | TGI [49]: > 100 µM | TGI [50]: > 100 µM | TGI [51]: > 100 µM | TGI [52]: > 100 µM | TGI [53]: > 100 µM | TGI [54]: > 100 µM | TGI [55]: > 100 µM | TGI [56]: > 100 µM | TGI [57]: > 100 µM

CCOC(=O)c1c(N)sc2c1C(C(=O)OCC)CCC2 (stereo not given)
TGI [1]: > 100 µM | TGI [2]: > 100 µM | TGI [3]: > 100 µM | TGI [4]: > 100 µM | TGI [58]: > 100 µM | TGI [5]: > 100 µM | TGI [6]: > 100 µM | TGI [9]: > 100 µM | TGI [10]: > 100 µM | TGI [11]: > 100 µM | TGI [12]: > 100 µM | TGI [13]: > 100 µM | TGI [15]: > 100 µM | TGI [16]: > 100 µM | TGI [18]: > 100 µM | TGI [19]: > 100 µM | TGI [20]: > 100 µM | TGI [21]: > 100 µM | TGI [22]: > 100 µM | TGI [24]: > 100 µM | TGI [26]: > 100 µM | TGI [27]: > 100 µM | TGI [28]: > 100 µM | TGI [30]: > 100 µM | TGI [31]: > 100 µM | TGI [32]: > 100 µM | TGI [33]: > 100 µM | TGI [34]: > 100 µM | TGI [35]: > 100 µM | TGI [36]: > 100 µM | TGI [37]: > 100 µM | TGI [38]: > 100 µM | TGI [59]: > 100 µM | TGI [40]: > 100 µM | TGI [41]: > 100 µM | TGI [42]: > 100 µM | TGI [43]: > 100 µM | TGI [45]: > 100 µM | TGI [46]: > 100 µM | TGI [48]: > 100 µM | TGI [49]: > 100 µM | TGI [50]: > 100 µM | TGI [52]: > 100 µM | TGI [53]: > 100 µM | TGI [55]: > 100 µM | TGI [56]: > 100 µM | TGI [57]: > 100 µM

N#Cc1c(N2CCN(c3ccc([N+](=O)[O-])cc3)CC2)[n+](=O)c2ccc(-c3ccc([N+](=O)[O-])cc3)cc2n1[O-]
TGI [1]: > 100 µM | TGI [2]: > 100 µM | TGI [3]: > 77.8 µM | TGI [4]: > 100 µM | TGI [5]: > 100 µM | TGI [6]: > 100 µM | TGI [7]: > 100 µM | TGI [8]: > 100 µM | TGI [9]: > 100 µM | TGI [10]: > 100 µM | TGI [11]: > 100 µM | TGI [12]: 23.8 µM | TGI [13]: > 100 µM | TGI [14]: > 100 µM | TGI [15]: > 100 µM | TGI [16]: > 100 µM | TGI [17]: > 100 µM | TGI [18]: > 100 µM | TGI [19]: > 100 µM | TGI [20]: > 100 µM | TGI [21]: > 48.6 µM | TGI [22]: > 100 µM | TGI [23]: > 100 µM | TGI [24]: > 58.9 µM | TGI [25]: > 100 µM | TGI [26]: > 100 µM | TGI [27]: > 100 µM | TGI [28]: > 83.9 µM | TGI [29]: > 100 µM | TGI [30]: > 100 µM | TGI [31]: > 100 µM | TGI [32]: > 100 µM | TGI [33]: > 41 µM | TGI [34]: > 100 µM | TGI [35]: > 100 µM | TGI [36]: > 100 µM | TGI [38]: > 57.3 µM | TGI [39]: > 100 µM | TGI [40]: > 100 µM | TGI [41]: > 100 µM | TGI [42]: > 100 µM | TGI [43]: > 100 µM | TGI [44]: > 100 µM | TGI [45]: > 100 µM | TGI [46]: > 100 µM | TGI [47]: > 77.2 µM | TGI [48]: > 100 µM | TGI [49]: > 100 µM | TGI [50]: > 100 µM | TGI [51]: > 100 µM | TGI [52]: > 100 µM | TGI [53]: > 38.3 µM | TGI [54]: > 100 µM | TGI [55]: 17.5 µM | TGI [56]: > 75 µM | TGI [57]: > 100 µM
